From patent publication US9833497B2, “Human originated EGF domain proteins and use of the same” (CHENGDU SOURCEBIO LIMITED-LIABILITY COMPANY, priority 2013, dated 2017)

Columns and labels:
Format in all cases: cell-based
[1] = tested on: Proteus vulgaris; assay: MIC against Gram-negative bacteria: Proteus vulgaris; conditions: 5×10^5 CFU/mL; for MIC against P. vulgaris: Proteus vulgaris
How it was run: (§1)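 Purified recombinant human EGF domain proteins are tested by broth dilution in LB against a 5×10^5 CFU/mL inoculum, with two-fold serial dilutions run in triplicate. Plates are incubated at 37° C with shaking, and the MIC is read as the lowest protein concentration without growth.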

[2] = tested on: Citrobacter diversus; assay: MIC against Gram-negative bacteria: Citrobacter diversus; conditions: 5×10^5 CFU/mL; for MIC against C. diversus: Citrobacter diversus
How it was run: as §1

[3] = tested on: Serratia marcescens; assay: MIC against Gram-negative bacteria: Serratia marcescens; conditions: 5×10^5 CFU/mL; for MIC against S. marcescens: Serratia marcescens
How it was run: as §1

[4] = tested on: E. coli BL21; assay: MIC against Gram-negative bacteria: E. coli BL21; conditions: 5×10^5 CFU/mL
How it was run: as §1

[5] = tested on: Pseudomonas aeruginosa; assay: MIC against Gram-negative bacteria: Pseudomonas aeruginosa; conditions: 5×10^5 CFU/mL; for MIC against P. aeruginosa: Pseudomonas aeruginosa
How it was run: as §1

[6] = tested on: Moraxella catarrhalis; assay: MIC against Gram-negative bacteria: Moraxella catarrhalis; conditions: 5×10^5 CFU/mL; for MIC against M. catarrhalis: Moraxella catarrhalis
How it was run: as §1

[7] = tested on: Proteus mirabilis; assay: MIC against Gram-negative bacteria: Proteus mirabilis; conditions: 5×10^5 CFU/mL; for MIC against P. mirabilis: Proteus mirabilis
How it was run: as §1

[8] = tested on: Enterobacter cloacae; assay: MIC against Gram-negative bacteria: Enterobacter cloacae; conditions: 5×10^5 CFU/mL; for MIC against E. cloacae: Enterobacter cloacae
How it was run: as §1

[9] = tested on: Klebsiella pneumonia; assay: MIC against Gram-negative bacteria: Klebsiella pneumonia; conditions: 5×10^5 CFU/mL; for MIC against K. pneumonia: Klebsiella pneumonia
How it was run: as §1

[10] = tested on: Aeromonas hydrophila; assay: MIC against Gram-negative bacteria: Aeromonas hydrophila; conditions: 5×10^5 CFU/mL; for MIC against A. hydrophila: Aeromonas hydrophila
How it was run: as §1

[11] = tested on: E. coli DH5α; assay: Antibacterial activity: MIC and growth curve against E. coli DH5α in 96-well plate; conditions: minimal inhibitory concentration against E. coli DH5α; 96-well plate, 5×10^5 CFU/mL, 37° C., judged after 8 h
How it was run: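 MIC taken as lowest protein level with no bacterial growth, tracked by A600 every 30 min during 37 °C, 175 rpm culture. Two-fold protein series 50-12.5 μg/mL final, triplicate wells, against 5×10^5 CFU/mL of LB-washed mid-log cells.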

[12] = E. coli BL21, 10 h cultivation at 37° C.
[13] = E. coli BL21, 96-well plate, 37° C., 10 h

Row | Substance | MIC against P. vulgaris ([1]; 10 h cultivation at 37° C.) [mg/L] | MIC against C. diversus ([2]; 10 h cultivation at 37° C.) [mg/L] | MIC against S. marcescens ([3]; 10 h cultivation at 37° C.) [mg/L] | MIC against E. coli BL21 [4, 12] [mg/L] | MIC against P. aeruginosa ([5]; 10 h cultivation at 37° C.) [mg/L] | MIC against M. catarrhalis ([6]; 10 h cultivation at 37° C.) [mg/L] | MIC against P. mirabilis ([7]; 10 h cultivation at 37° C.) [mg/L] | MIC against E. cloacae ([8]; 10 h cultivation at 37° C.) [mg/L] | MIC against K. pneumonia ([9]; 10 h cultivation at 37° C.) [mg/L] | MIC against A. hydrophila ([10]; 10 h cultivation at 37° C.) [mg/L] | MIC [11] [mg/L] | MIC against P. vulgaris ([1]; 96-well plate, 37° C., 10 h) [mg/L] | MIC against C. diversus ([2]; 96-well plate, 37° C., 10 h) [mg/L] | MIC against S. marcescens ([3]; 96-well plate, 37° C., 10 h) [mg/L] | MIC against E. coli BL21 [4, 13] [mg/L] | MIC against P. aeruginosa ([5]; 96-well plate, 37° C., 10 h) [mg/L] | MIC against M. catarrhalis ([6]; 96-well plate, 37° C., 10 h) [mg/L] | MIC against P. mirabilis ([7]; 96-well plate, 37° C., 10 h) [mg/L] | MIC against E. cloacae ([8]; 96-well plate, 37° C., 10 h) [mg/L] | MIC against K. pneumonia ([9]; 96-well plate, 37° C., 10 h) [mg/L] | also measured
1 | PRT1361 (SELICPNDCFDRGRCINGTCYCEEGFTGEDCG; listed as Homo sapiens) | 25 | 50 | 50 | 12.5 | 25 | 25 | 12.5 | 12.5 | 50 | 25 | 25 | – | – | – | – | – | – | – | – | – | –
2 | PRT1330 (VVDFCKQDNGGCAKVARCSQKGTKVSCSCQKGYKGDGHSCT; listed as Homo sapiens) | – | – | – | – | – | – | – | – | – | – | 12.5 | 25 | 50 | 50 | 12.5 | 12.5 | 25 | 12.5 | 50 | 12.5 | MIC against A. hydrophila ([10]; 96-well plate, 37° C., 10 h): 12.5 mg/L
3 | PRT802 (SNRCQCQNGALCNPITGACVCAAGFRGWRCE; listed as Homo sapiens) | – | – | – | – | – | – | – | – | – | – | 12.5 | – | – | – | – | – | – | – | – | – | MIC (μg/mL) P. vulgaris ([1]; P. vulgaris, 10 h cultivation at 37° C.): 25 µg/mL; MIC (μg/mL) C. diversus ([2]; C. diversus, 10 h cultivation at 37° C.): 25 µg/mL; MIC (μg/mL) S. marcescens ([3]; S. marcescens, 10 h cultivation at 37° C.): 12.5 µg/mL; MIC (μg/mL) E. coli BL21 [4, 12]: 12.5 µg/mL; MIC (μg/mL) P. aeruginosa ([5]; P. aeruginosa, 10 h cultivation at 37° C.): 25 µg/mL; MIC (μg/mL) M. catarrhalis ([6]; M. catarrhalis, 10 h cultivation at 37° C.): 12.5 µg/mL; MIC (μg/mL) P. mirabilis ([7]; P. mirabilis, 10 h cultivation at 37° C.): 25 µg/mL; MIC (μg/mL) E. cloacae ([8]; E. cloacae, 10 h cultivation at 37° C.): 12.5 µg/mL; MIC (μg/mL) K. pneumonia ([9]; K. pneumonia, 10 h cultivation at 37° C.): 12.5 µg/mL; MIC (μg/mL) A. hydrophila ([10]; A. hydrophila, 10 h cultivation at 37° C.): 12.5 µg/mL
4 | PRT1360 (NKPLCLNNCYNRGRCVENECVCDEGFTGEDCS; listed as Homo sapiens) | 25 | 12.5 | 50 | 25 | 50 | 50 | 12.5 | 12.5 | 25 | 50 | 12.5 | – | – | – | – | – | – | – | – | – | –
5 | PRT619 (CNCQGGGACDPDTGDCYSGDENPDIECADCPIGFYNDPHDPRSCKP; listed as Homo sapiens) | – | – | – | – | – | – | – | – | – | – | 12.5 | – | – | – | – | – | – | – | – | – | MIC P. vulgaris ([1]; 96-well plate, 37° C., 10 h): 25 mg/L; MIC C. diversus ([2]; 96-well plate, 37° C., 10 h): 50 mg/L; MIC S. marcescens ([3]; 96-well plate, 37° C., 10 h): 50 mg/L; MIC E. coli BL21 ([4]; 96-well plate, 37° C., 10 h): 25 mg/L; MIC P. aeruginosa ([5]; 96-well plate, 37° C., 10 h): 50 mg/L; MIC M. catarrhalis ([6]; 96-well plate, 37° C., 10 h): 25 mg/L; MIC P. mirabilis ([7]; 96-well plate, 37° C., 10 h): 12.5 mg/L; MIC E. cloacae ([8]; 96-well plate, 37° C., 10 h): 12.5 mg/L; MIC K. pneumonia ([9]; 96-well plate, 37° C., 10 h): 25 mg/L; MIC A. hydrophila ([10]; 96-well plate, 37° C., 10 h): 25 mg/L
6 | PRT1283 (NTDDCVDHACANGGVCVDGVGNYTCQCPLQYEGKACE; listed as Homo sapiens) | – | – | – | – | – | – | – | – | – | – | 12.5 | 12.5 | 50 | 25 | 50 | 12.5 | 12.5 | 25 | 12.5 | 50 | MIC against A. hydrophila ([10]; 96-well plate, 37° C., 10 h): 12.5 mg/L
